Our source for the activity values is patent publication US20060148799A1, “Substituted p-phenyl carbamates” (Novo Nordisk A/S, priority 2003, published 2006).

The target of the experiment is T1, Hormone-sensitive lipase (HSL) (Homo sapiens, UniProt Q05469).
T1 construct: made in house
T1 sequence (Q05469 1-1076): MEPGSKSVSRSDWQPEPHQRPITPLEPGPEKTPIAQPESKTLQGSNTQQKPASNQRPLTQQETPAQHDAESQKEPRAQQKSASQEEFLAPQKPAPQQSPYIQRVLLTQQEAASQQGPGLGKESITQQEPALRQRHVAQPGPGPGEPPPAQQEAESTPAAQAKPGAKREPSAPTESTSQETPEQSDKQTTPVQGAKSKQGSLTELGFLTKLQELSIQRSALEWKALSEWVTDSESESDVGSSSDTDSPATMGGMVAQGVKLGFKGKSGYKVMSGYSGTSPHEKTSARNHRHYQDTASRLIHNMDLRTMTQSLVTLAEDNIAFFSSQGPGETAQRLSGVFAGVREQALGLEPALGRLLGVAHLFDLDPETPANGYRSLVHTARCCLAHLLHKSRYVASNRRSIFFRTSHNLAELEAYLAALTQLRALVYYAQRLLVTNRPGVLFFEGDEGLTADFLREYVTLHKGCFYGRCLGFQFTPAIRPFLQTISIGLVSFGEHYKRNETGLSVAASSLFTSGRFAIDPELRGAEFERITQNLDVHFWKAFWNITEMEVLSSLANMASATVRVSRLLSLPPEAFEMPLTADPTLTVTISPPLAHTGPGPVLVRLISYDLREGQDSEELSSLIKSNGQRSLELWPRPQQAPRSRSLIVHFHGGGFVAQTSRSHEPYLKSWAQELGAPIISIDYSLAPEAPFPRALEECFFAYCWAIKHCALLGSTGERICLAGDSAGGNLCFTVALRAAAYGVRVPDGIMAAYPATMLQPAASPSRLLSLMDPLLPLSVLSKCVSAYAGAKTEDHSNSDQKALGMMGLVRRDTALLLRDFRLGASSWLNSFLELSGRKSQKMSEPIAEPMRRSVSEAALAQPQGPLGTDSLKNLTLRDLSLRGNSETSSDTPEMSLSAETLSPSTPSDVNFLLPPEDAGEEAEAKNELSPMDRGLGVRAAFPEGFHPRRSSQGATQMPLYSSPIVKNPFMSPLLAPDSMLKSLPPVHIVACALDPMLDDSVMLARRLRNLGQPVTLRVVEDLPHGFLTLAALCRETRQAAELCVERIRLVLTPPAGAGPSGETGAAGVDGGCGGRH
The experiment can be described thus: 3190.1: percent inhibition of hormone sensitive lipase at 10 μM (fluorochrome-labeled triacylglyceride emulsion). The format is biochemical. As to conditions: % activity relative to non-inhibited sample; 10 μM sample concentration; 30 min pre-incubation at 25° C., 120 min incubation at 37° C.; read-out: 3190.1 HSL_FL % ACTIVITY (%). An excerpt:
Materials. The Hormone-sensitive lipase was provided by Dr. Cecilia Holm, from Lund University Sweden or produced and purified by Novo Nordisk (NN) using the reagents and protocols used by Dr. Holm. The substrates used are: ^3H-labeled triolein (TO) from Amersham, Buckinghamshire, U.K. cat No. TRA191; 5-20 Ci/mmol dissolved in toluene, triolein (Sigma, Cat. No. T-1740), fluorochrome-labeled triacylglyceride (cis-octadec-9-enoic acid 2-[12-(7-nitrobenzo[1,2,5]oxadiazol-4-ylamino)dodecanoyloxy]-1-cis-octadec-9-enoyloxymethyl-ethyl ester) prepared by Novo Nordisk (NN) by conventional methods, and 1,3-(di[^3H]-stearin), 2-(PEG-Biotin)glycerol prepared in collaboration with Amersham Pharmacia Biotech, UK and described in WO 01/073442. Phosphatidyl choline (PC) and phosphatidyl inositol (PI) are from Sigma (St Luis Mo. cat. Nos. P-3556 and P-5954 respectively). All other reagents are of commercial grade and obtained from various commercial sources.
3190.1: Assay for determination of percent inhibition of hormone sensitive lipase by compound at 10 μM sample concentration.
A lipid emulsion with fluorochrome-labeled triacylglyceride and phospholipid is used as substrate with a standard concentration of highly purified HSL (12 μg/mL initial concentration corresponding to 600 ng/mL final concentration). BSA is added as product acceptor. The transfer of the fluorochrome from the lipid phase to the water (BSA) phase changes the fluorescent properties of the fluorochrome. The changes can be monitored on a fluorimeter with an excitation wavelength of 450 nm and an emission wavelength of 545 nm.
Compound and HSL (20 μL compound, 10 μL enzyme and 70 μL PED-BSA buffer) is pre-incubated for 30 min at 25° C. before addition of substrate (100 μL). Amount of formed product is measured after 120 min incubation at 37° C.
Results are given as percent activity relative to a non-inhibited sample (no compound).
In the case of `CN(C(=O)Oc1ccc(NC(=O)c2ccc(CN3CCCCC3)cc2)cc1)c1ccccc1` [Example 1, Methyl-phenyl-carbamic acid 4-(4-piperidin-1-ylmethyl-benzoylamino)-phenyl ester], the activity at 10 µM turned out to be 4%. Then `CN(C(=O)Oc1ccc(NC(=O)c2ccc(CN3CCOCC3)cc2)cc1)c1ccccc1` [Example 2, Methyl-phenyl-carbamic acid 4-(4-morpholin-4-ylmethyl-benzoylamino)-phenyl ester], with 4%; and `CC1CCN(Cc2ccc(C(=O)Nc3ccc(OC(=O)N(C)c4ccccc4)cc3)cc2)CC1` [Example 3, Methyl-phenyl-carbamic acid 4-[4-(4-methyl-piperidin-1-ylmethyl)-benzoylamino]-phenyl ester], with 2%.
